Non-standard residues stand in square brackets, D forms with d. Residues, ends and D or L forms follow the SMILES beside them. *: point of attachment. pT = C[C@@H](OP(=O)(O)O)[C@H](N)C(=O)O; Meb = Cc1ccc(C*)cc1; Acm = CC(=O)NC*; tBu = CC(C)(C)*; Cam = NC(=O)C*
Each compound was assayed against T1, interactions between Talin 1 (TLN1) and integrin subunit beta (ITGB) (Homo sapiens, UniProt Q9Y490) (assay: Flip-flop detection mechanism on DNA origami (LgBit/SmBit luminescence), inhibitor screening). Details: inhibition of binding between TLN1 and ITBG.
T1 construct: LgBit or SmBit (N-terminal of the HaloTag); made in house
Format: biochemical
Excerpt: Two types of systems, i.e., flip-flop detection mechanism and switch detection mechanism, were constructed by using HaloTag, LgBit, SmBit, TLN1, and ITGB. Each of TLN1 (Uniprot ID: Q9Y490) and ITGB1 (Uniprot ID: P05556) was cloned from the registered genetic information. HaloTAg has three chemically modifiable locations at a ligand recognition site, C-terminus, and N-terminus. In this Example, a single-stranded DNA for attaching to DNA origami was connected to a ligand recognition site of HaloTag, a subunit of an interaction complex was connected to the C-terminus, and LgBit or SmBit was connected to the N-terminus.
The outline of the system is disclosed in Figure 23. When TLN1 and ITBG are in a bound state in this system, LgBit and SmBit are at spatially separated positions from each other, with a HaloTag interposed therebetween. In this regard, if an inhibitor is added, complex formation of TLN1 and ITBG is inhibited. As a result, a LgBit-SmBit complex can be formed, and a luminescence reaction progresses.
As a candidate drug for inhibiting the binding between TLN1 and ITBG, peptide inhibitors consisting of 13 amino acids prepared by modifying amino acids in an intracellular region of ITGB3 have been designed (Shen B. et al., A directional switch of integrin signaling and a new antithrombotic strategy. Nature 503, 131-135 (2013)). IC50 values for the peptides shown in the following table were calculated by using the flip-flop detection mechanism described in Example 11 for optimizing the sequence. In this manner, the effect of a large number of compounds on the interaction with a target protein can be readily analyzed in the system of the present disclosed.

Compound	Inhibitory activity
CSCC[C@H](NC(=O)[C@H](CCCCN)NC(=O)[C@H](CCC(=O)O)NC(=O)[C@H](CCCCN)NC(=O)[C@H](CCC(=O)O)NC(=O)[C@H](Cc1ccccc1)NC(=O)[C@@H](N)CCCCN)C(=O)N[C@@H](CC(N)=O)C(=O)N[C@@H](CS)C(=O)N[C@@H](CCCCN)C(=O)N[C@@H](Cc1c[nH]c2ccccc12)C(=O)N[C@@H](CC(=O)O)C(=O)N[C@H](C(=O)O)[C@@H](C)O [FIYM8] (H-KFEKEKMNCKWDT-OH)	no inhibition
CSCC[C@H](NC(=O)[C@H](CCCCN)NC(=O)[C@H](CCC(=O)O)NC(=O)[C@H](CCCCN)NC(=O)[C@H](CCC(=O)O)NC(=O)[C@H](Cc1ccccc1)NC(=O)[C@@H](N)CCCCN)C(=O)N[C@@H](CC(N)=O)C(=O)N[C@@H](CSCc1ccc(C)cc1)C(=O)N[C@@H](CCCCN)C(=O)N[C@@H](Cc1c[nH]c2ccccc12)C(=O)N[C@@H](CCSC)C(=O)N[C@H](C(=O)O)[C@@H](C)O [FIYM41] (H-KFEKEKMNC(Meb)KWMT-OH)	no inhibition
CSCC[C@H](NC(=O)[C@H](CCCCN)NC(=O)[C@H](CCC(=O)O)NC(=O)[C@H](CCCCN)NC(=O)[C@H](CCC(=O)O)NC(=O)[C@H](Cc1ccccc1)NC(=O)[C@H](CCCCN)NC(=O)[C@@H]1CCCN1C(=O)CN)C(=O)N[C@@H](CC(N)=O)C(=O)N[C@@H](CS)C(=O)N[C@@H](CCCCN)C(=O)N[C@@H](Cc1c[nH]c2ccccc12)C(=O)N[C@@H](CCSC)C(=O)N[C@H](C(=O)O)[C@@H](C)O [FIYM55] (H-GPKFEKEKMNCKWMT-OH)	no inhibition
CSCC[C@H](NC(=O)[C@H](CCCNC(=N)N)NC(=O)[C@H](CCC(=O)O)NC(=O)[C@H](CCCCN)NC(=O)[C@H](CCC(=O)O)NC(=O)[C@H](Cc1ccccc1)NC(=O)[C@@H](N)CCCCN)C(=O)N[C@@H](CC(N)=O)C(=O)N[C@@H](CS)C(=O)N[C@@H](CCCCN)C(=O)N[C@@H](Cc1c[nH]c2ccccc12)C(=O)N[C@@H](CCSC)C(=O)N[C@H](C(=O)O)[C@@H](C)O [FIYM28] (H-KFEKERMNCKWMT-OH)	no inhibition
CSCC[C@H](NC(=O)[C@H](CCCNC(=N)N)NC(=O)[C@H](CCC(=O)O)NC(=O)[C@@H](N)Cc1ccccc1)C(=O)N[C@@H](CC(N)=O)C(=O)N[C@@H](CS)C(=O)N[C@@H](CCCCN)C(=O)N[C@@H](Cc1c[nH]c2ccccc12)C(=O)N[C@@H](CCSC)C(=O)N[C@H](C(=O)O)[C@@H](C)O [FIYM25] (H-FERMNCKWMT-OH)	no inhibition
CC[C@H](C)[C@H](NC(=O)[C@@H]1CCCN1C(=O)[C@H](CC(N)=O)NC(=O)[C@H](CCC(=O)O)NC(=O)CNC(=O)[C@@H](NC(=O)[C@H](CC(=O)O)NC(=O)[C@H](Cc1c[nH]c2ccccc12)NC(=O)[C@H](CCCCN)NC(=O)[C@H](C)NC(=O)[C@H](CC(N)=O)NC(=O)[C@H](CCSC)NC(=O)[C@H](CCCCN)NC(=O)[C@H](CCC(=O)O)NC(=O)[C@H](CCCCN)NC(=O)[C@H](CCC(=O)O)NC(=O)[C@H](Cc1ccccc1)NC(=O)[C@H](CCCCN)NC(=O)[C@H](C)NC(=O)[C@H](Cc1ccccc1)NC(=O)[C@@H](N)CCC(=O)O)[C@@H](C)O)C(=O)N[C@@H](Cc1ccc(O)cc1)C(=O)N[C@@H](CCCCN)C(=O)O [FIYM7] (H-EFAKFEKEKMNAKWDTGENPIYK-OH)	no inhibition
CC[C@H](C)[C@H](NC(=O)[C@@H]1CCCN1C(=O)[C@H](CC(N)=O)NC(=O)[C@H](CCC(=O)O)NC(=O)CNC(=O)[C@@H](NC(=O)[C@H](CC(=O)O)NC(=O)[C@H](Cc1c[nH]c2ccccc12)NC(=O)[C@@H](N)CCCCN)[C@@H](C)O)C(=O)N[C@@H](Cc1ccc(O)cc1)C(=O)N[C@@H](CCCCN)C(=O)O [FIYM4] (H-KWDTGENPIYK-OH)	no inhibition

Second part, the compound after the results:

Inhibitory activity	Compound
no inhibition	CSCC[C@H](NC(=O)[C@H](CC(N)=O)NC(=O)[C@@H](N)CCC(=O)O)C(=O)N[C@@H](CCCCN)C(=O)N[C@@H](CCC(=O)O)C(=O)N[C@@H](CCCCN)C(=O)N[C@@H](CCCCN)C(=O)N[C@@H](CC(=O)O)C(=O)N[C@@H](Cc1c[nH]c2ccccc12)C(=O)N[C@@H](C)C(=O)N[C@@H](CCCCN)C(=O)N[C@@H](Cc1ccccc1)C(=O)N[C@H](C(=O)O)[C@@H](C)O [FIYM3] (H-ENMKEKKDWAKFT-OH)
no inhibition	CSCC[C@H](NC(=O)[C@H](CCCCN)NC(=O)[C@H](CCC(=O)O)NC(=O)[C@H](CCCCN)NC(=O)[C@H](CCC(=O)O)NC(=O)[C@H](Cc1ccccc1)NC(=O)[C@@H](N)CCCCN)C(=O)N[C@@H](CC(N)=O)C(=O)N[C@@H](CS)C(=O)N[C@@H](CCCCN)C(=O)N[C@@H](Cc1c[nH]c2ccccc12)C(=O)N[C@@H](CCSC)C(=O)N[C@H](C(=O)O)[C@@H](C)OP(=O)(O)O [FIYM13] (H-KFEKEKMNCKWM[pT]-OH)
no inhibition	CSCC[C@H](NC(=O)[C@H](CCCCN)NC(=O)[C@H](CCC(=O)O)NC(=O)[C@H](CCCNC(=N)N)NC(=O)[C@H](CCC(=O)O)NC(=O)[C@H](Cc1ccccc1)NC(=O)[C@@H](N)CCCNC(=N)N)C(=O)N[C@@H](CC(N)=O)C(=O)N[C@@H](CS)C(=O)N[C@@H](CCCNC(=N)N)C(=O)N[C@@H](Cc1c[nH]c2ccccc12)C(=O)N[C@@H](CCSC)C(=O)N[C@H](C(=O)O)[C@@H](C)O [FIYM16] (H-RFEREKMNCRWMT-OH)
no inhibition	KF(-CI)EKEKMNCKWMT (KFEKEKMNCKWMT) [FIYM18]
no inhibition	CSCC[C@H](NC(=O)[C@H](CCCCN)NC(=O)[C@H](CCC(=O)O)NC(=O)[C@H](CCCCN)NC(=O)[C@H](CCC(=O)O)NC(=O)[C@H](Cc1ccccc1)NC(=O)[C@@H](N)CCCCN)C(=O)N[C@@H](CC(N)=O)C(=O)N[C@@H](CSCNC(C)=O)C(=O)N[C@@H](CCCCN)C(=O)N[C@@H](Cc1c[nH]c2ccccc12)C(=O)N[C@@H](CCSC)C(=O)N[C@H](C(=O)O)[C@@H](C)O [FIYM38] (H-KFEKEKMNC(Acm)KWMT-OH)

Same assay, conditions: inhibition of binding between TLN1 and ITBG, read-out: Inhibitory activity

Compound	IC50
CSCC[C@H](NC(=O)[C@H](CCCCN)NC(=O)[C@H](CCC(=O)O)NC(=O)[C@H](CCCCN)NC(=O)[C@H](CCC(=O)O)NC(=O)[C@H](Cc1ccccc1)NC(=O)[C@@H](N)CCCCN)C(=O)N[C@@H](CC(N)=O)C(=O)N[C@@H](CSCC(N)=O)C(=O)N[C@@H](CCCCN)C(=O)N[C@@H](Cc1c[nH]c2ccccc12)C(=O)N[C@@H](CCSC)C(=O)N[C@H](C(=O)O)[C@@H](C)O [FIYM39] (H-KFEKEKMNC(Cam)KWMT-OH)	131 µM
CSCC[C@H](NC(=O)[C@H](CCCCN)NC(=O)[C@H](CCC(=O)O)NC(=O)[C@H](CCCCN)NC(=O)[C@H](CCC(=O)O)NC(=O)[C@H](Cc1ccccc1)NC(=O)[C@@H](N)CCCNC(=N)N)C(=O)N[C@@H](CC(N)=O)C(=O)N[C@@H](CS)C(=O)N[C@@H](CCCCN)C(=O)N[C@@H](Cc1c[nH]c2ccccc12)C(=O)N[C@@H](CCSC)C(=O)N[C@H](C(=O)O)[C@@H](C)O [FIYM26] (H-RFEKEKMNCKWMT-OH)	76.9 µM

The next lines start with the values.

IC50	Compound
709 µM	CSCC[C@H](NC(=O)[C@H](CCCCN)NC(=O)[C@H](CCC(=O)O)NC(=O)[C@H](CCCCN)NC(=O)[C@H](CCC(=O)O)NC(=O)[C@H](Cc1ccccc1)NC(=O)[C@@H](N)CCCCN)C(=O)N[C@@H](CC(N)=O)C(=O)N[C@@H](C)C(=O)N[C@@H](CCCCN)C(=O)N[C@@H](Cc1c[nH]c2ccccc12)C(=O)N[C@@H](CC(=O)O)C(=O)N[C@H](C(=O)O)[C@@H](C)O [FIYM1] (H-KFEKEKMNAKWDT-OH)
110 µM	CSCC[C@H](NC(=O)[C@H](CCCCN)NC(=O)[C@H](CCC(=O)O)NC(=O)[C@H](CCCCN)NC(=O)[C@H](CCC(=O)O)NC(=O)[C@H](Cc1ccccc1)NC(=O)[C@@H](N)CCCCN)C(=O)N[C@@H](CC(N)=O)C(=O)N[C@@H](CSC(C)(C)C)C(=O)N[C@@H](CCCCN)C(=O)N[C@@H](Cc1c[nH]c2ccccc12)C(=O)N[C@@H](CCSC)C(=O)N[C@H](C(=O)O)[C@@H](C)O [FIYM40] (H-KFEKEKMNC(tBu)KWMT-OH)
5.7 µM	CSCC[C@H](NC(=O)[C@H](CCCCN)NC(=O)[C@H](CCC(=O)O)NC(=O)[C@H](CCCCN)NC(=O)[C@H](CCC(=O)O)NC(=O)[C@H](Cc1ccccc1)NC(=O)[C@@H](N)CCCCN)C(=O)N[C@@H](CC(N)=O)C(=O)N[C@@H](CS)C(=O)N[C@@H](CCCCN)C(=O)N[C@@H](Cc1c[nH]c2ccccc12)C(=O)N[C@@H](CCSC)C(=O)N[C@H](C(=O)O)[C@@H](C)O [FIYM10] (H-KFEKEKMNCKWMT-OH)

Same assay, conditions: inhibition of binding between TLN1 and ITBG, µM, read-out: Inhibitory activity

IC50	Compound
292 µM	CSCC[C@H](NC(=O)[C@H](CCCCN)NC(=O)[C@H](CCC(=O)O)NC(=O)[C@H](CCCCN)NC(=O)[C@H](CCC(=O)O)NC(=O)[C@H](Cc1ccccc1)NC(=O)[C@H](CCCCN)NC(=O)[C@@H](N)CCSC)C(=O)N[C@@H](CC(N)=O)C(=O)N[C@@H](CS)C(=O)N[C@@H](CCCCN)C(=O)N[C@@H](Cc1c[nH]c2ccccc12)C(=O)N[C@@H](CCSC)C(=O)N[C@H](C(=O)O)[C@@H](C)O [FIYM48] (H-MKFEKEKMNCKWMT-OH)

Reference: patent EP4793641A1, “NOVEL METHOD FOR ANALYZING BIOMOLECULAR INTERACTIONS” (Kyoto University, priority 2023, dated 2025)
